Results taken from US20240368121A1, “ESTROGEN RECEPTOR DEGRADERS, PHARMACEUTICAL COMPOSITIONS THEREOF, AND THEIR THERAPEUTIC APPLICATIONS” (BioTheryX, Inc., priority 2021, published 2024).
pIC50: −log10 of the molar value.

How the values were obtained:
Assay type in all cases: cell-based
T47D cells = test: Cell viability assay ([…]-GLO, 6-day treatment); details: Homo sapiens, 144 h, 6 days, CTG, read-out: Inhibition of Cancerous Cells IC50 T47D
Method: (§1) A compound provided herein was evaluated for its anticancer activity in MCF7 and T47D cells. MCF7 and T47D cells were cultured at 37° C. in a humidified 5% C02 environment in MEM or RPMI, supplemented with 10% FBS with insulin, respectively. The cells were plated in 384-well microplates at a density of 1,000 cells per well in their respective maintenance media. The cells were treated with the compound by a 10-point dose response curve for 6 days, during which, the medium and compound were refreshed once. After the 6-day treatment, the cell viability was assessed using […]-GLO (CTG) reagent. Luminescence was measured with a microplate reader.

MCF7 cells = test: Cell viability assay ([…]-GLO, 6-day treatment); details: Homo sapiens, MCF7, 144 h; MCF-7 cells, 6 days, CTG; read-out: Inhibition of Cancerous Cells IC50 MCF-7
Method: as §1

ERα = molecular target: T1, ERα (Homo sapiens, UniProt P03372); test: Protein degradation assay: ERα in MCF-7 cells via western blot; details: 6 h; for ERα Protein Degradation 1 nM: 1 nM compound; for ERα Protein Degradation 10 nM: 10 nM compound; for ERα Protein Degradation 100 nM: 100 nM compound
T1 construct: degrading an ERα in MCF-7 cells via a western blot; endogenous in cells; host or cells: MCF-7
T1 sequence (P03372 1-595): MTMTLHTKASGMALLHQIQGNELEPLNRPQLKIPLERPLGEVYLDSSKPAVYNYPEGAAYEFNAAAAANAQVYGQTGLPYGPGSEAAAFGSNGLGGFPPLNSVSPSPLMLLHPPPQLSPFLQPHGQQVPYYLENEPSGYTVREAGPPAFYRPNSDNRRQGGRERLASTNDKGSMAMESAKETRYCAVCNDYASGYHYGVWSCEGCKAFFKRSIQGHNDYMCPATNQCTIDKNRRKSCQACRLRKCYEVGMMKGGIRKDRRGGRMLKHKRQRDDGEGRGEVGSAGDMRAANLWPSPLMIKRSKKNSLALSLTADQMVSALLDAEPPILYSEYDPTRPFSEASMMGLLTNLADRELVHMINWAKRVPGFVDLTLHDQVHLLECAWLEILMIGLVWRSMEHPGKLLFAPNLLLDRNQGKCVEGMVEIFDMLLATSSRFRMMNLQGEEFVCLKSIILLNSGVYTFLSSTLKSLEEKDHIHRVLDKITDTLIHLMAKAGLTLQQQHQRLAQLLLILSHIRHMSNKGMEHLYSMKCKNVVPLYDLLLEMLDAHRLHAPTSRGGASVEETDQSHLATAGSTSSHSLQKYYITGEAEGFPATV
Method: A compound provided herein was assessed for its activity in degrading an ERα in MCF-7 cells via a western blot. The MCF7 cells were cultured at 37° C. in a humidified 5% C02 environment in MEM supplemented with 10% FBS with insulin. The cells were seeded in 12-well plates at a density of 300,000 cells per well in maintenance media. Cells were treated with the compound at predetermined concentrations (e.g., 1 nM, 10 nM, 100 nM, and 1 μM) for 6 h. The cells were then washed in PBS and the whole cells were lysed in a cell lysis buffer and incubated for 15 minutes on ice. Cell debris was removed by high-speed centrifugation and the cleared whole cell lysates were prepared for further analysis by a western blot. The whole cell protein extracts were separated on SDS-polyacrylamide gels, transferred to nitrocellulose membranes, and probed with primary antibodies, including anti-ERα antibody and GAPDH antibody for loading control. The membranes were subsequently washed and probed with secondary antibodies for chemiluminescence, followed by imaging on a BIORAD CHEMIDOC Imaging System. The results are summarized in Table 2, where “A” represents a percentage degradation value of no less than 50%; “B” represents a percentage degradation value of less than 50% and no less than 25%; “C” represents a percentage degradation value of less than 25% and no less than 10%; and “D” represents a percentage degradation value of less than 10%.

| pIC50 (T47D cells) | pIC50 (MCF7 cells) | Compound | ERα Protein Degradation 1 nM (ERα) | ERα Protein Degradation 10 nM (ERα) | ERα Protein Degradation 100 nM (ERα) |
| --- | --- | --- | --- | --- | --- |
| 9.19 | 8.96 | Cc1c(-c2ccc(O)cc2)n(Cc2ccc(OCCCCN3CCN(C(=O)COc4cccc5c(C6CCC(=O)NC6=O)nn(C)c45)CC3)cc2)c2ccc(O)cc12 (centres unmarked) [Compound E7, 3-(7-(2-(4-(4-(4-((5-Hydroxy-2-(4-hydroxyphenyl)-3-methyl-1H-indol-1-yl)-methyl)phenoxy)butyl)piperazin-1-yl)-2-oxoethoxy)-1-methyl-1H-indazol-3-yl)piperidine-2,6-dione] | B (a percentage degradation value of less than 50% and no less than 25%) | A (a percentage degradation value of no less than 50%) | A (a percentage degradation value of no less than 50%) |
| 9.77 | 9.42 | Cc1c(-c2ccc(O)cc2)n(Cc2ccc(N3CCC(CN4CCN(c5ccc6c(c5)CN(C5CCC(=O)NC5=O)C6=O)CC4)CC3)cc2)c2ccc(O)cc12 (centres unmarked) [Compound E4, 3-(5-(4-((1-(4-((5-hydroxy-2-(4-hydroxyphenyl)-3-methyl-1H-indol-1-yl)-methyl)phenyl)piperidin-4-yl)methyl)piperazin-1-yl)-1-oxoisoindolin-2-yl)piperidine-2,6-dione] | B (a percentage degradation value of less than 50% and no less than 25%) | B (a percentage degradation value of less than 50% and no less than 25%) | C (a percentage degradation value of less than 25% and no less than 10%) |
| 7.08 |  | Cn1nc(C2CCC(=O)NC2=O)c2cccc(OCC(=O)N3CCN(CCCCOc4ccc(CC5(C)C(c6ccc(O)cc6)=Nc6ccc(O)cc65)cc4)CC3)c21 (centres unmarked) [Compound D4, 3-(7-(2-(4-(4-(4-((5-hydroxy-2-(4-hydroxyphenyl)-3-methyl-3H-indol-3-yl)-methyl)phenoxy)butyl)piperazin-1-yl)-2-oxoethoxy)-1-methyl-1H-indazol-3-yl)piperidine-2,6-dione] | D (a percentage degradation value of less than 10%) | D (a percentage degradation value of less than 10%) | C (a percentage degradation value of less than 25% and no less than 10%) |
|  | 6.24 | CC1(Cc2ccc(OCCCCN3CCN(C(=O)COc4ccc5c(c4)CN(C4CCC(=O)NC4=O)C5=O)CC3)cc2)C(c2ccc(O)cc2)=Nc2ccc(O)cc21 (centres unmarked) [Compound D3, 3-(5-(2-(4-(4-(4-((5-Hydroxy-2-(4-hydroxyphenyl)-3-methyl-3H-indol-3-yl)-methyl)phenoxy)butyl)piperazin-1-yl)-2-oxoethoxy)-1-oxoisoindolin-2-yl)piperidine-2,6-dione] | D (a percentage degradation value of less than 10%) | D (a percentage degradation value of less than 10%) | D (a percentage degradation value of less than 10%) |
|  | 8.77 | Cc1c(-c2ccc(O)cc2)n(Cc2ccc(OCCCCN3CCN(C(=O)COc4ccc(C5CCC(=O)NC5=O)cc4)CC3)cc2)c2ccc(O)cc12 (centres unmarked) [Compound E24, 3-(4-(2-(4-(4-(4-((5-hydroxy-2-(4-hydroxyphenyl)-3-methyl-1H-indol-1-yl)-methyl)phenoxy)butyl)piperazin-1-yl)-2-oxoethoxy)phenyl)piperidine-2,6-dione] | D (a percentage degradation value of less than 10%) | D (a percentage degradation value of less than 10%) | D (a percentage degradation value of less than 10%) |
|  | 8.77 | Cc1c(-c2ccc(O)cc2)n(Cc2ccc(OCCCCN3CCN(C(=O)COc4cccc5c(N6CCC(=O)NC6=O)nn(C)c45)CC3)cc2)c2ccc(O)cc12 [Compound D23, 1-(7-(2-(4-(4-(4-((5-hydroxy-2-(4-hydroxyphenyl)-3-methyl-1H-indol-1-yl)-methyl)phenoxy)butyl)piperazin-1-yl)-2-oxoethoxy)-1-methyl-1H-indazol-3-yl)dihydro-pyrimidine-2,4(1H,3H)-dione] | C (a percentage degradation value of less than 25% and no less than 10%) | C (a percentage degradation value of less than 25% and no less than 10%) | D (a percentage degradation value of less than 10%) |

Continued, compound first:

| Compound | pIC50 (T47D cells) | pIC50 (MCF7 cells) | ERα Protein Degradation 1 nM (ERα) | ERα Protein Degradation 10 nM (ERα) | ERα Protein Degradation 100 nM (ERα) |
| --- | --- | --- | --- | --- | --- |
| O=C1CCC(N2Cc3cc(C4CCN(CCCCOc5ccc([C@@H]6c7ccc(O)cc7CC[C@@H]6c6ccccc6)cc5)CC4)c(F)cc3C2=O)C(=O)N1 (stereo partly drawn) [Compound A4, 3-(6-Fluoro-5-(1-(4-(4-((1R,2S)-6-hydroxy-2-phenyl-1,2,3,4-tetrahydro-naphthalen-1-yl)phenoxy)butyl)piperidin-4-yl)-1-oxoisoindolin-2-yl)piperidine-2,6-dione] | 10.10 | 10.22 | D (a percentage degradation value of less than 10%) | D (a percentage degradation value of less than 10%) | D (a percentage degradation value of less than 10%) |
| O=C1CCC(N2Cc3c(csc3C3CCN(CCCCOc4ccc([C@@H]5c6ccc(O)cc6CC[C@@H]5c5ccccc5)cc4)CC3)C2=O)C(=O)N1 (stereo partly drawn) [Compound A19, 3-(1-(1-(4-(4-((1R,2S)-6-Hydroxy-2-phenyl-1,2,3,4-tetrahydronaphthalen-1-yl)-phenoxy)butyl)piperidin-4-yl)-4-oxo-4H-thieno[3,4-c]pyrrol-5(6H)-yl)piperidine-2,6-dione] | 10.15 | 8.66 | D (a percentage degradation value of less than 10%) | D (a percentage degradation value of less than 10%) | D (a percentage degradation value of less than 10%) |
| Cn1nc(C2CCC(=O)NC2=O)c2ccc(OCC(=O)N3CCN(CC4CCN(c5ccc([C@@H]6c7ccc(O)cc7CC[C@@H]6c6ccccc6)cc5)CC4)CC3)cc21 (stereo partly drawn) [Compound B27, 3-(6-(2-(4-((1-(4-((1R,2S)-6-Hydroxy-2-phenyl-1,2,3,4-tetrahydronaphthalen-1-yl)phenyl)piperidin-4-yl)methyl)piperazin-1-yl)-2-oxoethoxy)-1-methyl-1H-indazol-3-yl)-piperidine-2,6-dione] |  | 9.00 | D (a percentage degradation value of less than 10%) | B (a percentage degradation value of less than 50% and no less than 25%) | D (a percentage degradation value of less than 10%) |
| O=C1CCC(c2ccc(OCC(=O)N3CCN(CCCCOc4ccc([C@H]5c6ccc(O)cc6CC[C@H]5c5ccccc5)cc4)CC3)cc2)C(=O)N1 (stereo partly drawn) [Compound B44, 3-(4-(2-(4-(4-(4-((1S,2R)-6-Hydroxy-2-phenyl-1,2,3,4-tetrahydronaphthalen-1-yl)phenoxy)butyl)piperazin-1-yl)-2-oxoethoxy)phenyl)piperidine-2,6-dione] |  | 6.97 | B (a percentage degradation value of less than 50% and no less than 25%) | C (a percentage degradation value of less than 25% and no less than 10%) | C (a percentage degradation value of less than 25% and no less than 10%) |
